Tests used:
Format in all cases: in vivo
Details in all cases: treatment dosage 320 g/ha
corn [1] = assay: Test Example 4: foliar treatment, effect on crop; c: corn
In short: (§1)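 Seeds are spot-sown into sterilized diluvial soil and covered with about 1.5 cm of soil. After 14 days' greenhouse growth at 25 to 30° C, plants are sprayed on stems and leaves with diluted emulsion at the stated g/ha rate, then scored at 3 weeks.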

corn [2] = assay: Test Example 3: soil treatment, effect on crop; c: corn
In short: (§2)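 Crop and weed responses were judged three weeks after a uniform surface spray of the water-diluted emulsion at the given g/ha rate. Seeds sat beneath about 1.5 cm of sterilized diluvial soil, and boxes stood in a greenhouse at 25 to 30° C.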

barnyard grass [3] = assay: Test Example 3: weedkilling efficacy through soil treatment; F: barnyard grass
In short: as §2

birds-eye speedwell = assay: Test Example 4: weedkilling efficacy by foliar treatment; p: birds-eye speedwell
In short: as §1

barnyard grass [4] = assay: Test Example 2: weedkilling efficacy, growth period weed treatment in the submerged state; A: barnyard grass
In short: (§3)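 Seedlings at 1-2 leaves in 4 cm-deep submerged alluvial soil received emulsion formulations on the water surface, dosed per hectare; effects were judged 3 weeks on.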

oval-leafed pondweed [5] = assay: Test Example 1: weedkilling efficacy, preemergent weed treatment in the submerged state; C: oval-leafed pondweed
In short: (§4)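 Submerged pre-emergence treatment, water-surface application of compound emulsion at g/ha dosages; 4 cm flooded alluvial soil, weeds sown and 2.5-leaf rice transplanted same day. Rated after 3 weeks, greenhouse.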

redroot pigweed [6] = assay: Test Example 3: weedkilling efficacy through soil treatment; L: redroot pigweed
In short: as §2

Indian mallow [7] = assay: Test Example 3: weedkilling efficacy through soil treatment; K: Indian mallow
In short: as §2

bulrush [8] = assay: Test Example 2: weedkilling efficacy, growth period weed treatment in the submerged state; B: bulrush
In short: as §3

Italian ryegrass [9] = assay: Test Example 3: weedkilling efficacy through soil treatment; I: Italian ryegrass
In short: as §2

directly sown rice [10] = assay: Test Example 3: soil treatment, effect on crop; b: directly sown rice
In short: as §2

crabgrass [11] = assay: Test Example 4: weedkilling efficacy by foliar treatment; D: crabgrass
In short: as §1

wild oat [12] = assay: Test Example 4: weedkilling efficacy by foliar treatment; G: wild oat
In short: as §1

Italian ryegrass [13] = assay: Test Example 4: weedkilling efficacy by foliar treatment; I: Italian ryegrass
In short: as §1

fig-leafed goosefoot [14] = assay: Test Example 4: weedkilling efficacy by foliar treatment; M: fig-leafed goosefoot
In short: as §1

fig-leafed goosefoot [15] = assay: Test Example 3: weedkilling efficacy through soil treatment; M: fig-leafed goosefoot
In short: as §2

directly sown rice [16] = assay: Test Example 4: foliar treatment, effect on crop; b: directly sown rice
In short: as §1

catchweed [17] = assay: Test Example 4: weedkilling efficacy by foliar treatment; O: catchweed
In short: as §1

chickweed [18] = assay: Test Example 4: weedkilling efficacy by foliar treatment; N: chickweed
In short: as §1

soybean [19] = assay: Test Example 3: soil treatment, effect on crop; d: soybean
In short: as §2

crabgrass [20] = assay: Test Example 3: weedkilling efficacy through soil treatment; D: crabgrass
In short: as §2

wheat [21] = assay: Test Example 4: foliar treatment, effect on crop; e: wheat
In short: as §1

catchweed [22] = assay: Test Example 3: weedkilling efficacy through soil treatment; O: catchweed
In short: as §2

rapeseed [23] = assay: Test Example 4: foliar treatment, effect on crop; g: rapeseed
In short: as §1

beet [24] = assay: Test Example 3: soil treatment, effect on crop; f: beet
In short: as §2

redroot pigweed [25] = assay: Test Example 4: weedkilling efficacy by foliar treatment; L: redroot pigweed
In short: as §1

beet [26] = assay: Test Example 4: foliar treatment, effect on crop; f: beet
In short: as §1

common wind-grass [27] = assay: Test Example 4: weedkilling efficacy by foliar treatment; J: common wind-grass
In short: as §1

Indian mallow [28] = assay: Test Example 4: weedkilling efficacy by foliar treatment; K: Indian mallow
In short: as §1

black-grass [29] = assay: Test Example 3: weedkilling efficacy through soil treatment; H: black-grass
In short: as §2

bulrush [30] = assay: Test Example 1: weedkilling efficacy, preemergent weed treatment in the submerged state; B: bulrush
In short: as §4

barnyard grass [31] = assay: Test Example 1: weedkilling efficacy, preemergent weed treatment in the submerged state; A: barnyard grass
In short: as §4

transplanted rice = assay: Test Example 1: preemergent weed treatment in the submerged state, effect on crop; a: transplanted rice
In short: as §4

rapeseed [32] = assay: Test Example 3: soil treatment, effect on crop; g: rapeseed
In short: as §2

soybean [33] = assay: Test Example 4: foliar treatment, effect on crop; d: soybean
In short: as §1

green foxtail [34] = assay: Test Example 4: weedkilling efficacy by foliar treatment; E: green foxtail
In short: as §1

oval-leafed pondweed [35] = assay: Test Example 2: weedkilling efficacy, growth period weed treatment in the submerged state; C: oval-leafed pondweed
In short: as §3

common wind-grass [36] = assay: Test Example 3: weedkilling efficacy through soil treatment; J: common wind-grass
In short: as §2

chickweed [37] = assay: Test Example 3: weedkilling efficacy through soil treatment; N: chickweed
In short: as §2

wild oat [38] = assay: Test Example 3: weedkilling efficacy through soil treatment; G: wild oat
In short: as §2

barnyard grass [39] = assay: Test Example 4: weedkilling efficacy by foliar treatment; F: barnyard grass
In short: as §1

green foxtail [40] = assay: Test Example 3: weedkilling efficacy through soil treatment; E: green foxtail
In short: as §2

wheat [41] = assay: Test Example 3: soil treatment, effect on crop; e: wheat
In short: as §2

black-grass [42] = assay: Test Example 4: weedkilling efficacy by foliar treatment; H: black-grass
In short: as §1

SMILES: CC1=C(c2ccccc2)C(=O)N(C(C)(C)C(=O)Nc2cc(-c3ccc(F)nc3)ccn2)CO1 [B-5-01]
- c (corn) effect on crop grade (corn [1]): 0 (weed kill ratio 5% or less (practically no effect))
- c (corn) effect on crop grade (corn [2]): 0 (weed kill ratio 5% or less (practically no effect))
- F (barnyard grass) weedkilling efficacy grade (barnyard grass [3]): 0 (weed kill ratio 5% or less (practically no effect))
- P (birds-eye speedwell) weedkilling efficacy grade (birds-eye speedwell): 3 (weed kill ratio 40% or more, less than 70%)
- A (barnyard grass) weedkilling efficacy grade (barnyard grass [4]): 3 (weed kill ratio 40% or more, less than 70%)
- C (oval-leafed pondweed) weedkilling efficacy grade (oval-leafed pondweed [5]): 4 (weed kill ratio 70% or more, less than 90%)
- L (redroot pigweed) weedkilling efficacy grade (redroot pigweed [6]): 0 (weed kill ratio 5% or less (practically no effect))
- K (Indian mallow) weedkilling efficacy grade (Indian mallow [7]): 0 (weed kill ratio 5% or less (practically no effect))
- B (bulrush) weedkilling efficacy grade (bulrush [8]): 3 (weed kill ratio 40% or more, less than 70%)
- I (Italian ryegrass) weedkilling efficacy grade (Italian ryegrass [9]): 0 (weed kill ratio 5% or less (practically no effect))
- b (directly sown rice) effect on crop grade (directly sown rice [10]): 0 (weed kill ratio 5% or less (practically no effect))
- D (crabgrass) weedkilling efficacy grade (crabgrass [11]): 0 (weed kill ratio 5% or less (practically no effect))
- G (wild oat) weedkilling efficacy grade (wild oat [12]): 0 (weed kill ratio 5% or less (practically no effect))
- I (Italian ryegrass) weedkilling efficacy grade (Italian ryegrass [13]): 0 (weed kill ratio 5% or less (practically no effect))
- M (fig-leafed goosefoot) weedkilling efficacy grade (fig-leafed goosefoot [14]): 3 (weed kill ratio 40% or more, less than 70%)
- M (fig-leafed goosefoot) weedkilling efficacy grade (fig-leafed goosefoot [15]): 0 (weed kill ratio 5% or less (practically no effect))
- b (directly sown rice) effect on crop grade (directly sown rice [16]): 0 (weed kill ratio 5% or less (practically no effect))
- O (catchweed) weedkilling efficacy grade (catchweed [17]): 1 (weed kill ratio 5% or more, less than 20%)
- N (chickweed) weedkilling efficacy grade (chickweed [18]): 0 (weed kill ratio 5% or less (practically no effect))
- d (soybean) effect on crop grade (soybean [19]): 0 (weed kill ratio 5% or less (practically no effect))
- D (crabgrass) weedkilling efficacy grade (crabgrass [20]): 0 (weed kill ratio 5% or less (practically no effect))
- e (wheat) effect on crop grade (wheat [21]): 0 (weed kill ratio 5% or less (practically no effect))
- O (catchweed) weedkilling efficacy grade (catchweed [22]): 0 (weed kill ratio 5% or less (practically no effect))
- g (rapeseed) effect on crop grade (rapeseed [23]): 0 (weed kill ratio 5% or less (practically no effect))
- f (beet) effect on crop grade (beet [24]): 0 (weed kill ratio 5% or less (practically no effect))
- L (redroot pigweed) weedkilling efficacy grade (redroot pigweed [25]): 0 (weed kill ratio 5% or less (practically no effect))
- f (beet) effect on crop grade (beet [26]): 0 (weed kill ratio 5% or less (practically no effect))
- J (common wind-grass) weedkilling efficacy grade (common wind-grass [27]): 0 (weed kill ratio 5% or less (practically no effect))
- K (Indian mallow) weedkilling efficacy grade (Indian mallow [28]): 0 (weed kill ratio 5% or less (practically no effect))
- H (black-grass) weedkilling efficacy grade (black-grass [29]): 0 (weed kill ratio 5% or less (practically no effect))
- B (bulrush) weedkilling efficacy grade (bulrush [30]): 5 (weed kill ratio 90% or more, (practically complete withering))
- A (barnyard grass) weedkilling efficacy grade (barnyard grass [31]): 4 (weed kill ratio 70% or more, less than 90%)
- a (transplanted rice) effect on crop grade (transplanted rice): 0 (weed kill ratio 5% or less (practically no effect))
- g (rapeseed) effect on crop grade (rapeseed [32]): 0 (weed kill ratio 5% or less (practically no effect))
- d (soybean) effect on crop grade (soybean [33]): 0 (weed kill ratio 5% or less (practically no effect))
- E (green foxtail) weedkilling efficacy grade (green foxtail [34]): 0 (weed kill ratio 5% or less (practically no effect))
- C (oval-leafed pondweed) weedkilling efficacy grade (oval-leafed pondweed [35]): 4 (weed kill ratio 70% or more, less than 90%)
- J (common wind-grass) weedkilling efficacy grade (common wind-grass [36]): 4 (weed kill ratio 70% or more, less than 90%)
- N (chickweed) weedkilling efficacy grade (chickweed [37]): 0 (weed kill ratio 5% or less (practically no effect))
- G (wild oat) weedkilling efficacy grade (wild oat [38]): 0 (weed kill ratio 5% or less (practically no effect))
- F (barnyard grass) weedkilling efficacy grade (barnyard grass [39]): 0 (weed kill ratio 5% or less (practically no effect))
- E (green foxtail) weedkilling efficacy grade (green foxtail [40]): 2 (weed kill ratio 20% or more, less than 40%)
- e (wheat) effect on crop grade (wheat [41]): 0 (weed kill ratio 5% or less (practically no effect))
- H (black-grass) weedkilling efficacy grade (black-grass [42]): 0 (weed kill ratio 5% or less (practically no effect))
